# pIC50: −log10 of the molar value.
# Assays:
# [1] = molecular target: T1, human adenosine A2b receptor (Homo sapiens, UniProt P29275); experiment: Adenosine A2b receptor whole cell cyclic AMP assay; conditions: for inhibition at 10 µM: HEK293, 1 h, read-out: A2b @ 10 μM Adenosine (A2b cAMP IC50)
# T1 sequence (P29275 1-332): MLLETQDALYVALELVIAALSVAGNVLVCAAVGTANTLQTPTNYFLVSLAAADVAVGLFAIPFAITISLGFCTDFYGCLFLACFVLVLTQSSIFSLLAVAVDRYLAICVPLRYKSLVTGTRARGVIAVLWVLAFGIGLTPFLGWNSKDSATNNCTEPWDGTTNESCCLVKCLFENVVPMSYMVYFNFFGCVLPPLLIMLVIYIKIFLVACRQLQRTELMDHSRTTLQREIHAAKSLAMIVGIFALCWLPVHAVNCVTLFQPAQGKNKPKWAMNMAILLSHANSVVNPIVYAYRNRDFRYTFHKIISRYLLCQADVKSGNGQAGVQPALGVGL
# [2] = molecular target: human adenosine A2a receptor (Homo sapiens, UniProt P29274); experiment: Adenosine A2a receptor whole cell cyclic AMP assay; conditions: HEK293 cells stably expressing human A2a, 1 hour compound treatment
# [3] = A2a @ 1 μM Adenosine (A2a cAMP IC50), 1 μM adenosine
# [4] = A2a @ 100 μM Adenosine (A2a cAMP IC50), 100 μM adenosine
# human adenosine A2a receptor, sequence (P29274 whole entry): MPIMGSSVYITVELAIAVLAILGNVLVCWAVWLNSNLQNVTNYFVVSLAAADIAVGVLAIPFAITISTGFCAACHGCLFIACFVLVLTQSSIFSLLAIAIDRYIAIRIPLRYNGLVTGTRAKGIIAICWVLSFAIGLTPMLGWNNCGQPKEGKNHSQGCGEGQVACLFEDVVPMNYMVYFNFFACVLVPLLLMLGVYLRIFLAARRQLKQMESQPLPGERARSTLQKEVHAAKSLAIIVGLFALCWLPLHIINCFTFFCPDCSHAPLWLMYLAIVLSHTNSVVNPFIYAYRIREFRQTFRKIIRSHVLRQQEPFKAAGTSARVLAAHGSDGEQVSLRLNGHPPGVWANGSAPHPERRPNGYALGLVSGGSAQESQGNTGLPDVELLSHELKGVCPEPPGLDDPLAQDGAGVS
Compound,pIC50 [1],"pIC50 [2, 3]","pIC50 [2, 4]",inhibition at 10 µM [1],"A2a @ 100 μM Adenosine (A2a cAMP IC50) ([2]; 100 μM adenosine, 10 µM)"
"Nc1nc(-c2ccc(F)cc2)c(-c2ccc3ncc(CO)n3c2)n2nnnc12 [1-20, (6-(8-amino-6-(4-fluorophenyl)tetrazolo[1,5-a]pyrazin-5-yl)imidazo[1,2-a]pyridin-3-yl)methanol]",6.00 to 7.00,> 7.00,< 6.00,–,–
"Cc1c(C#N)cccc1-c1cc(-c2cn(Cc3cccc(C(C)(C)O)n3)nn2)nc(N)n1 [AB928, reference compound]",< 6.00,6.00 to 7.00,< 6.00,–,–
"Cc1ccc(-c2nc(N)nc3c2nnn3Cc2cccc(CO[C@H]3CCOC3)n2)o1 [CPI-444, reference compound]",–,–,–,< 25%,NR (“NR” indicates A2a or A2b mean inhibition is <25% at the top concentration)
"COc1ccc(-c2nc(N)c3nnnn3c2-c2ccc3nccc(C)c3c2)cc1 [1-38, 6-(4-methoxyphenyl)-5-(4-methylquinolin-6-yl)tetrazolo[1,5-a]pyrazin-8-amine]",–,6.00 to 7.00,–,< 25%,–
"Nc1nc(-c2ccc(F)cc2)c(-c2ccc3ncc(C(F)F)n3c2)n2nnnc12 [1-48, 5-(3-(difluoromethyl)imidazo[1,2-a]pyridin-6-yl)-6-(4-fluorophenyl)tetrazolo[1,5-a]pyrazin-8-amine]",6.00 to 7.00,6.00 to 7.00,6.00 to 7.00,–,–
"Cc1cc(Cl)cc(-c2c(-c3ccc(F)cc3)nc(N)c3nnnn23)c1 [1-3, 5-(3-chloro-5-methylphenyl)-6-(4-fluorophenyl)tetrazolo[1,5-a]pyrazin-8-amine]",–,< 6.00,–,–,–
"Cc1ccnc2ccc(-c3c(-c4cccc(C#N)c4)nc(N)c4nnnn34)cc12 [1-31, 3-(8-amino-5-(4-methylquinolin-6-yl)tetrazolo[1,5-a]pyrazin-6-yl)benzonitrile]",–,6.00 to 7.00,–,–,–
"Cc1ccnc2ccc(-c3c(-c4ccccc4Cl)nc(N)c4nnnn34)cc12 [1-45, 6-(2-chlorophenyl)-5-(4-methylquinolin-6-yl)tetrazolo[1,5-a]pyrazin-8-amine]",–,6.00 to 7.00,–,–,–

# More lines, main results first:
pIC50 [1],"pIC50 [2, 3]","pIC50 [2, 4]",inhibition at 10 µM [1],Compound,"A2a @ 100 μM Adenosine (A2a cAMP IC50) ([2]; 100 μM adenosine, 10 µM)"
6.00 to 7.00,> 7.00,6.00 to 7.00,–,"Cc1cnc2ccc(-c3c(-c4ccc(F)cc4)nc(N)n4nnnc34)cn12 [1-25, 7-(4-fluorophenyl)-8-(3-methylimidazo[1,2-a]pyridin-6-yl)tetrazolo[1,5-c]pyrimidin-5-amine]",–
6.00 to 7.00,6.00 to 7.00,< 6.00,–,"COc1ccc(-c2nc(N)n3nnnc3c2-c2ccc3ncc(C)n3c2)cc1 [1-57, 7-(4-methoxyphenyl)-8-(3-methylimidazo[1,2-a]pyridin-6-yl)tetrazolo[1,5-c]pyrimidin-5-amine]",–
–,6.00 to 7.00,< 6.00,< 25%,"Nc1nc(-c2ccc(F)cc2)c(-c2cc(Cl)nc(C(F)(F)F)c2)c2nnnn12 [1-34, 8-(2-chloro-6-(trifluoromethyl)pyridin-4-yl)-7-(4-fluorophenyl)tetrazolo[1,5-c]pyrimidin-5-amine]",–
6.00 to 7.00,> 7.00,6.00 to 7.00,–,"Cc1cnc2ccc(-c3c(-c4ccc(F)cc4)nc(N)c4nnnn34)cn12 [1-7, 6-(4-fluorophenyl)-5-(3-methylimidazo[1,2-a]pyridin-6-yl)tetrazolo[1,5-a]pyrazin-8-amine]",–
–,6.00 to 7.00,–,–,"Nc1nc(-c2ccc(F)cc2)c(-c2ccc3ncccc3c2)c2nnnn12 [1-37, 7-(4-fluorophenyl)-8-(quinolin-6-yl)tetrazolo[1,5-c]pyrimidin-5-amine]",–
–,> 7.00,–,< 25%,"Cc1ccnc2ccc(-c3c(-c4ccc(F)cc4)nc(N)c4nnnn34)cc12 [1-6, 6-(4-fluorophenyl)-5-(4-methylquinolin-6-yl)tetrazolo[1,5-a]pyrazin-8-amine]",–
–,> 7.00,–,–,"Cn1cnc2ccc(-c3c(-c4ccc(F)cc4)nc(N)n4nnnc34)cc21 [1-30, 7-(4-fluorophenyl)-8-(1-methyl-1H-benzo[d]imidazol-6-yl)tetrazolo[1,5-c]pyrimidin-5-amine]",–
